# Patent publication US20020161528A1, “Tool for lipophilicity determination in drug discovery basic and neutral compounds” (Pfizer Inc., priority 2001, published 2002)
# Several values for one entry are separate records, joined by “and”; a condition that tells them apart may be missing. Identical values can stand only once. Counter-ions that a name gives are not always drawn. Like-named read-outs stand apart in the source and are kept apart here.
# What was measured:
# [1] = cited from earlier work
# [2] = for log k′w / ElogDoct: pH 7.4
# physchem = conditions: pH 7.4
# [3] = Reference logDoct at pH 7.4: literature shake-flask or countercurrent data, shake-vial and pH-metric determinations, averaged
# [4] = Semi-automated shake-vial logDoct, Procedure B (1:1 n-octanol / phosphate buffer pH 7.4); assay type: physicochemical; conditions: duplicate determinations
# Text: (§1) The vials were shaken at least overnight.
# [5] = Shake-vial logDoct, Procedure A (octanol / MOPS buffer); assay type: physicochemical; conditions: concentration decreased from 1.5 to 0.1 mg, 50:2 octanol:buffer
# Text: as §1
# [6] = Table 1, average of literature references only, pH 7.4
# [7] = Table 1, capacity factor extrapolated to 0% methanol, average of three to five determinations
# [8] = Table 1, own shake-vial (Procedure A/B) and/or potentiometric determinations only
# [9] = Table 1, from log k′w by Equation 1
# [10] = Table 1, average of own shake-vial/potentiometric determinations and literature references
SMILES,"logDoct [1, 6]","log k′w [2, 7]",chromatographic logD (physchem),"logDoct [3, 8]",also measured
CC/C(=C(/CC)c1ccc(O)cc1)c1ccc(O)cc1 [Diethylstilbestrol],5.07,4.12,4.85,–,–
Clc1cccc(Cl)c1N=C1NCCN1 [Clonidine],0.62,0.07,0.29,–,–
C[C@@H]1C[C@H]2[C@@H]3CCC4=CC(=O)C=C[C@]4(C)[C@@]3(F)[C@@H](O)C[C@]2(C)[C@@]1(O)C(=O)CO [Dexamethasone],1.83,–,2.03,–,–
O=C1CN=C(c2ccccn2)c2cc(Br)ccc2N1 [Bromazepam],1.65,1.04,1.38,–,Res (logDoct − ElogDoct) ([2]; Table 1): 0.27
Cc1ncc([N+](=O)[O-])n1CCO [Metronidazole],−0.02,−0.08,0.12,–,–
NC(=O)N/N=C/c1ccc([N+](=O)[O-])o1 [Nitrofurazone],0.23,0.29,0.53,–,–
CN1CCCC1c1cccnc1 (stereo not shown) [Nicotine],–,–,0.23,0.40,log k′w [2]: 0.02
C[C@]12CC[C@H]3[C@@H](CCC4=CC(=O)CC[C@@]43C)[C@@H]1CC[C@@H]2O [Testosterone],3.29,2.63,–,–,Res (logDoct − ElogDoct) ([2]; Table 1): 0.12; ElogDoct [2]: 3.17
CNC(=NCCSCc1csc(N=C(N)N)n1)NC#N [Tiotidine],–,0.57,0.85,0.57,–
CNC(=C[N+](=O)[O-])NCCSCc1csc(CN(C)C)n1 [Nizatidine],−0.52,−0.13,0.06,–,–
c1ccc2ncccc2c1 [Quinoline],–,1.52,1.92,–,logDoct ([1]; pH 7.4): 2.03
CSc1ncnc2c1ncn2[C@@H]1O[C@H](CO)[C@@H](O)[C@H]1O [Methylthioinosine],–,0.25,–,–,"logDoct ([1]; pH 7.4): 0.09; Res (logDoct − ElogDoct) ([2]; Table 1): −0.40; ElogDoct [2, 9]: 0.49"
c1ccc(-c2ccc(C(c3ccccc3)n3ccnc3)cc2)cc1 (stereo not shown) [Bifonazole],4.77,4.33,5.09,–,–
O=[N+]([O-])c1ccc(/C=N/O)o1 [Nifuroxime],1.28,1.14,1.49,–,–
CS(=O)(=O)c1ccc([C@@H](O)[C@@H](CO)NC(=O)C(Cl)Cl)cc1 [Thiamphenicol],−0.27,−0.05,0.15,–,–
CC(C)(C)NCC(O)c1cc(O)cc(O)c1 (stereo not shown) [Terbutaline sulfate],−1.35,−1.51,-1.49,–,–
"Oc1cc(Cl)cc(Cl)c1 [3,5-Dichiorophenol]",–,3.44,–,–,logDoct ([1]; pH 7.4): 3.68; Res (logDoct − ElogDoct) ([2]; Table 1): −0.40; ElogDoct [2]: 4.08
NC(=O)N1c2ccccc2C=Cc2ccccc21 [Carbamazepine],2.19,1.40,–,–,–
COC(=O)[C@H]1[C@@H](OC(=O)c2ccccc2)C[C@@H]2CC[C@H]1N2C [Cocaine],1.05,–,0.48,–,Res (logDoct − ElogDoct) ([2]; Table 1): 0.57
NS(=O)(=O)c1cc2c(cc1Cl)NC(C(Cl)Cl)NS2(=O)=O (stereo not shown) [Trichlormethiazide],–,0.26,0.5,0.43,–
CN1CCN(CC(=O)N2c3ccccc3C(=O)Nc3cccnc32)CC1 [Pirenzepine],–,−0.15,0.04,−0.61,–
CC(=O)CCCCn1c(=O)c2c(ncn2C)n(C)c1=O [Pentoxifylline],0.29,0.03,0.24,–,–

SMILES,"logDoct [1, 6]","log k′w [2, 7]",chromatographic logD (physchem),"logDoct [3, 8]",also measured
CNS(=O)(=O)Cc1ccc2[nH]cc(CCN(C)C)c2c1 [Sumatriptan],–,−0.54,-0.4,–,"logDoct [3, 10]: −1.00"
COc1ccc2c(c1)N(C[C@H](C)CN(C)C)c1ccccc1S2 [Methotrimeprazine],–,2.10,2.57,2.77,–
O=c1n(CCCN2CCN(c3cccc(Cl)c3)CC2)nc2ccccn12 [Trazodone],–,2.45,2.97,2.54,–
Cc1ncc(-c2csc(N=C(N)N)n2)[nH]1 [Zaltidine],–,0.53,0.8,0.74,–
CN1C(=O)C(O)N=C(c2ccccc2Cl)c2cc(Cl)ccc21 (stereo not shown) [Lormetazepam],2.72,2.27,2.77,–,Res (logDoct − ElogDoct) ([2]; Table 1): −0.05
CC(=O)OCC(=O)[C@@]1(O)CC[C@H]2[C@@H]3CCC4=CC(=O)CC[C@]4(C)[C@H]3[C@@H](O)C[C@@]21C [Hydrocortisone-21 acetate],–,1.64,–,–,"logDoct ([1]; pH 7.4): 2.19; Res (logDoct − ElogDoct) ([2]; Table 1): 0.13; ElogDoct [2, 9]: 2.06"
Oc1ncnc2[nH]ncc12 [Allopurinol],–,−0.27,-0.1,–,"logDoct [3, 10]: −0.44"
CN/C(=N/CCSCc1nc[nH]c1C)NC#N [Cimetidine],–,0.17,–,0.35,–
COc1ccc2c3c1O[C@H]1[C@@H](O)C=C[C@H]4[C@@H](C2)N(C)CC[C@@]341 [Codeine],0.23,0.16,0.39,–,Res (logDoct − ElogDoct) ([2]; Table 1): −0.16
CNC(=C[N+](=O)[O-])NCCSCc1ccc(CN(C)C)o1 [Ranitidine],–,–,-0.5,−0.29,–
CCN(CC)CCNC(=O)c1cc(S(C)(=O)=O)ccc1OC [Tiapride],–,−0.58,-0.45,−0.90,–
CC(C)N(CCC(C(N)=O)(c1ccccc1)c1ccccn1)C(C)C (stereo not shown) [Disopyramide],–,−1.21,-1.15,−0.66,–
Brc1cnc2ccccc2c1 [3-Bromoquinoline],3.03,2.53,–,–,–
O=C(NCC1CCCCN1)c1cc(OCC(F)(F)F)ccc1OCC(F)(F)F (stereo not shown) [Flecainide],–,0.25,0.49,–,–
NS(=O)(=O)c1cc2c(cc1Cl)NC(C1CC3C=CC1C3)NS2(=O)=O (stereo not shown) [Cyclothiazide],–,2.15,2.63,2.09,–
C=CCc1ccccc1OCC(O)CNC(C)C (stereo not shown) [Alprenolol],–,0.37,0.62,–,–
Clc1ccccc1C(c1ccccc1)(c1ccccc1)n1ccnc1 [Clotrimazole],–,4.03,4.75,–,–
N=C(N)NCC1COc2ccccc2O1 (stereo not shown) [guanoxan],–,–,-0.3,–,logDoct ([1]; literature value (ref. 22)): −0.83; logDoct [4]: −0.1 and −0.3; logDoct [5]: −1.6 to −1.0
CCCCNc1ccc(C(=O)OCCN(C)C)cc1 [Tetracaine],2.29,1.70,2.12,–,Res (logDoct − ElogDoct) ([2]; Table 1): 0.17
COC1=CC(=O)C[C@@H](C)[C@]12Oc1c(Cl)c(OC)cc(OC)c1C2=O [Griseofulvin],2.18,1.73,2.16,–,–
COc1ccc([C@@H]2Sc3ccccc3N(CCN(C)C)C(=O)[C@@H]2OC(C)=O)cc1 [Diltiazem],–,1.59,2,2.06,–
